Our source for the EC50 and Emax values is US20220041606A1, “POSITIVE ALLOSTERIC MODULATORS OF THE MUSCARINIC ACETYLCHOLINE RECEPTOR M1” (Vanderbilt University, priority 2020, published 2022).

The target of assay [1] is T1, human mAChR M1 (Homo sapiens, UniProt P11229).
T1 construct: host or cells: CHO-K1 cells (ATCC), stably transfected using Lipofectamine2000
T1 sequence (P11229 1-460): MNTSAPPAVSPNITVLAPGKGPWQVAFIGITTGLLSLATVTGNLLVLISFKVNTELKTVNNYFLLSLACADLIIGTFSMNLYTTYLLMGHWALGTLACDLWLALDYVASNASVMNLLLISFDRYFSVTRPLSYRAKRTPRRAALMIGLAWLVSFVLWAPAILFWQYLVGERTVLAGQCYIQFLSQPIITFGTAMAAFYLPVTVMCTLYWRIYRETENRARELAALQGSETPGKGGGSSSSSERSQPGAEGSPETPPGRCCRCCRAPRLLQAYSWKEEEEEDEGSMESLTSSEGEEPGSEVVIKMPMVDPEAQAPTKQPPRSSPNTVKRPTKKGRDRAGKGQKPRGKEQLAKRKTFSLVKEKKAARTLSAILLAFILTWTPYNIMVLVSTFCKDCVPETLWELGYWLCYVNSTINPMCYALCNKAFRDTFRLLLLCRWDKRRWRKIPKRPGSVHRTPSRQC
Briefly: mAChR M1 cell-based functional assay (calcium mobilization), PAM activity: increase in the EC20 acetylcholine response. The settings on record: CHO-K1 cells expressing hM1; potentiation of EC20 acetylcholine response. The gist of the method: (§1)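 Fluorescence ratio calcium read-out (Fluo-4 AM, FDSS 6000) in human M1-expressing CHO-K1 cells. Agonist activity taken as concentration-dependent rise after compound addition; potentiation as enhancement of a subsequent EC20 acetylcholine challenge. Curves from 11-point threefold dilutions fitted by four-parameter logistic; Emax expressed versus acetylcholine maximum.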
For orientation: A change in cytosolic calcium serves as a functional read-out for many receptors and channels.

For assay [2], the target named is T1, human mAChR M1. The assay is described as follows: mAChR M1 cell-based functional assay (calcium mobilization), agonist activity upon compound addition. The following applies: CHO-K1 cells expressing hM1; for EC50: compound alone, before acetylcholine addition; for Emax: relative to the maximum for acetylcholine. The gist of the method:
as §1

Where only a bound is given, the exact number is not on record here.

Broadly, the EC50 is the midpoint of the concentration-response curve. In general, Emax refers to the greatest response seen or fitted, relative to the assay's reference. For `Cn1cc(-c2ccc(Cn3cc(C(=O)N[C@H]4CCCCC[C@@H]4O)c4nccn4c3=O)c(F)c2)cn1` [Compound B15, 6-(2-fluoro-4-(1-methyl-1H-pyrazol-4-yl)benzyl)-N-((1S,2S)-2-hydroxycycloheptyl)-5-oxo-5,6-dihydroimidazo[1,2-c]pyrimidine-8-carboxamide], at human mAChR M1 [1], the EC50 worked out at 0.027 µM and the maximum response (Emax) was found to be 70%. Also, on human mAChR M1 [2], the EC50 was determined as 2.96 µM and the Emax stood at 64%.

For the compound `Cc1cn2c(=O)n(Cc3ccc(-c4cnn(C)c4)cc3F)cc(C(=O)N[C@H]3CCCC[C@@H]3O)c2n1` [Compound B24, 6-(2-fluoro-4-(1-methyl-1H-pyrazol-4-yl)benzyl)-N-((1S,2S)-2-hydroxycyclohexyl)-2-methyl-5-oxo-5,6-dihydroimidazo[1,2-c]pyrimidine-8-carboxamide], on human mAChR M1 [1], the EC50 is ≥ 10 µM and the Emax was 41%. Also, at human mAChR M1 [2], the concentration for a half-maximal effect (EC50) was > 10 µM and the Emax was < 5%.

For the compound `Cn1ccc(-c2ccc(Cn3cc(C(=O)N[C@@H]4CC[C@H]4O)c4ncccc4c3=O)c(F)c2)n1` [Compound A4, 6-(2-fluoro-4-(1-methyl-1H-pyrazol-3-yl)benzyl)-N-((1R,2R)-2-hydroxycyclobutyl)-5-oxo-5,6-dihydro-1,6-naphthyridine-8-carboxamide], at human mAChR M1 [1], the concentration giving a half-maximal response (EC50) was 3.45 µM and the maximum response (Emax) worked out at 42%. Further, on human mAChR M1 [2], the EC50 was > 10 µM and the Emax was < 5%.

Regarding `Cc1ccc(-c2cc(F)c(Cn3cc(C(=O)N[C@H]4CCCC[C@@H]4O)c4ncccc4c3=O)c(F)c2)cn1` [Compound A35, 6-(2,6-difluoro-4-(6-methylpyridin-3-yl)benzyl)-N-((1S,2S)-2-hydroxycyclohexyl)-5-oxo-5,6-dihydro-1,6-naphthyridine-8-carboxamide], on human mAChR M1 [1], the 50% effective concentration (EC50) was 0.55 µM and the Emax was 48%. Also, on human mAChR M1 [2], the concentration for a half-maximal effect (EC50) was > 10 µM and the Emax was < 5%.

`Cc1cc(C)cc(-c2cc(F)c(Cn3cc(C(=O)N[C@H]4CCOC[C@@H]4O)c4ncccc4c3=O)c(F)c2)c1` [Compound A32, 6-((3,5-difluoro-3′,5′-dimethyl-[1,1′-biphenyl]-4-yl)methyl)-N-((3R,4S)-3-hydroxytetrahydro-2H-pyran-4-yl)-5-oxo-5,6-dihydro-1,6-naphthyridine-8-carboxamide]: the EC50 at human mAChR M1 [1] was 2.24 µM; on human mAChR M1 [2], > 10 µM. In addition, the Emax on human mAChR M1 [1] was 70%; on human mAChR M1 [2] it was < 5%.

On to `O=C(N[C@H]1CCOC[C@@H]1O)c1cn(Cc2ccc(-n3cccn3)cc2)c(=O)c2ccoc12` [Compound D2, 5-(4-(1H-pyrazol-1-yl)benzyl)-N-((3R,4S)-3-hydroxytetrahydro-2H-pyran-4-yl)-4-oxo-4,5-dihydrofuro[3,2-c]pyridine-7-carboxamide], for which the EC50 on human mAChR M1 [1] and on human mAChR M1 [2] was > 10 µM throughout. Besides, the figures for the Emax on human mAChR M1 [1] and at human mAChR M1 [2] were 57% and < 5%, respectively.

Turning to `Cn1ccc(-c2ccc(Cn3cc(C(=O)N[C@H]4CCC[C@@H]4O)c4ncccc4c3=O)c(F)c2)n1` [Compound A3, 6-(2-fluoro-4-(1-methyl-1H-pyrazol-3-yl)benzyl)-N-((1S,2S)-2-hydroxycyclopentyl)-5-oxo-5,6-dihydro-1,6-naphthyridine-8-carboxamide], on human mAChR M1 [1], the EC50 worked out at 1.66 µM and the Emax was 83%. Besides, at human mAChR M1 [2], the EC50 was > 10 µM and the Emax is < 5%.

Turning to `Cn1ccc(-c2ccc(Cn3cc(C(=O)N[C@H]4CCCCC[C@@H]4O)c4occc4c3=O)c(F)c2)n1` [Compound D9, 5-(2-fluoro-4-(1-methyl-1H-pyrazol-3-yl)benzyl)-N-((1S,2S)-2-hydroxycycloheptyl)-4-oxo-4,5-dihydrofuro[3,2-c]pyridine-7-carboxamide], the EC50 on human mAChR M1 [1] is 3.09 µM; on human mAChR M1 [2], > 10 µM. In addition, the results for the Emax at human mAChR M1 [1] and on human mAChR M1 [2] were 80% and < 5%, respectively.

As for `Cn1cc2c(-c3cc(F)c(Cn4cc(C(=O)N[C@H]5CCCCC[C@@H]5O)c5nccn5c4=O)c(F)c3)cccc2n1` [Compound B19, 6-(2,6-difluoro-4-(2-methyl-2H-indazol-4-yl)benzyl)-N-((1S,2S)-2-hydroxycycloheptyl)-5-oxo-5,6-dihydroimidazo[1,2-c]pyrimidine-8-carboxamide], at human mAChR M1 [1], the EC50 is 0.47 µM and the Emax amounted to 42%. Moreover, on human mAChR M1 [2], the EC50 is 5.24 µM and the Emax worked out at 51%.

For `Cn1cc(-c2ccc(Cn3cc(C(=O)N[C@H]4CCCCC[C@@H]4O)c4ncncc4c3=O)c(F)c2)cn1` [Compound A91, 6-(2-fluoro-4-(1-methyl-1H-pyrazol-4-yl)benzyl)-N-((1S,2S)-2-hydroxycycloheptyl)-5-oxo-5,6-dihydropyrido[4,3-d]pyrimidine-8-carboxamide], at human mAChR M1 [1], the concentration giving a half-maximal response (EC50) is ≥ 10 µM and the Emax turned out to be 34%. On human mAChR M1 [2], the concentration giving a half-maximal response (EC50) was > 10 µM and the Emax is < 5%.

For the compound `Cn1cc2c(-c3cc(F)c(Cn4cc(C(=O)N[C@H]5CCOC[C@@H]5O)c5nccnc5c4=O)c(F)c3)cccc2n1` [Compound A66, 6-(2,6-difluoro-4-(2-methyl-2H-indazol-4-yl)benzyl)-N-((3R,4S)-3-hydroxytetrahydro-2H-pyran-4-yl)-5-oxo-5,6-dihydropyrido[3,4-b]pyrazine-8-carboxamide], at human mAChR M1 [1], the EC50 came out at 0.28 µM and the Emax amounted to 72%. On human mAChR M1 [2], the EC50 turned out to be 5 µM and the Emax was 46%.

As to `Cn1ccc(-c2ccc(Cn3cc(C(=O)N[C@H]4CCOC[C@@H]4O)c4sccc4c3=O)c(F)c2)n1` [Compound D26, 5-(2-fluoro-4-(1-methyl-1H-pyrazol-3-yl)benzyl)-N-((3R,4S)-3-hydroxytetrahydro-2H-pyran-4-yl)-4-oxo-4,5-dihydrothieno[3,2-c]pyridine-7-carboxamide], on human mAChR M1 [1], the EC50 is > 10 µM and the Emax was found to be 34%. Further, at human mAChR M1 [2], the EC50 is > 10 µM and the Emax was < 5%.

For `Cn1cc(-c2ccc(Cn3cc(C(=O)N[C@H]4CCOC[C@@H]4O)c4nccn4c3=O)cn2)cn1` [Compound B10, N-((3R,4S)-3-hydroxytetrahydro-2H-pyran-4-yl)-6-((6-(1-methyl-1H-pyrazol-4-yl)pyridin-3-yl)methyl)-5-oxo-5,6-dihydroimidazo[1,2-c]pyrimidine-8-carboxamide], at human mAChR M1 [1], the EC50 was determined as 0.48 µM and the maximal response (Emax) turned out to be 60%. Also, the Emax on human mAChR M1 [2] turned out to be 41%.

Regarding `O=C(N[C@H]1CCOC[C@@H]1O)c1cn(Cc2ccc(-n3cccn3)cc2)c(=O)n2ccnc12` [Compound B12, 6-(4-(1H-Pyrazol-1-yl)benzyl)-N-((3R,4S)-3-hydroxytetrahydro-2H-pyran-4-yl)-5-oxo-5,6-dihydroimidazo[1,2-c]pyrimidine-8-carboxamide], at human mAChR M1 [1], the EC50 was determined as 0.38 µM and the maximal effect (Emax) was determined as 67%. In addition, at human mAChR M1 [2], the 50% effective concentration (EC50) is 6.02 µM and the Emax came to 55%.

In the case of `Cc1cncc(-c2cc(F)c(Cn3cc(C(=O)N[C@H]4CCCC[C@@H]4O)c4ncccc4c3=O)c(F)c2)c1` [Compound A43, 6-(2,6-difluoro-4-(5-methylpyridin-3-yl)benzyl)-N-((1S,2S)-2-hydroxycyclohexyl)-5-oxo-5,6-dihydro-1,6-naphthyridine-8-carboxamide], at human mAChR M1 [1], the EC50 stood at 0.64 µM and the Emax turned out to be 51%. Also, on human mAChR M1 [2], the EC50 was > 10 µM and the Emax is < 5%.

On to `Cn1cc(-c2ccc(Cn3cc(C(=O)N[C@H]4CCCCC[C@@H]4O)c4ncccc4c3=O)cc2)cn1` [Compound A87, N-((1S,2S)-2-hydroxycycloheptyl)-6-(4-(1-methyl-1H-pyrazol-4-yl)benzyl)-5-oxo-5,6-dihydro-1,6-naphthyridine-8-carboxamide], for which, on human mAChR M1 [1], the concentration giving a half-maximal response (EC50) is 0.82 µM and the maximal response (Emax) worked out at 44%. Further, at human mAChR M1 [2], the EC50 is > 10 µM and the maximum response (Emax) was < 5%.

Turning to `Cn1cc(-c2ccc(Cn3cc(C(=O)N[C@H]4CCOC[C@@H]4O)c4occc4c3=O)c(F)c2)cn1` [Compound D12, 5-(2-fluoro-4-(1-methyl-1H-pyrazol-4-yl)benzyl)-N-((3R,4S)-3-hydroxytetrahydro-2H-pyran-4-yl)-4-oxo-4,5-dihydrofuro[3,2-c]pyridine-7-carboxamide], at human mAChR M1 [1], the EC50 was 4.02 µM and the Emax worked out at 67%. For the same compound, on human mAChR M1 [2], the EC50 was > 10 µM and the Emax was < 5%.

Turning to `Cn1cc(-c2ccc(Cn3cc(C(=O)N[C@H]4CCC[C@@H]4O)c4ncccc4c3=O)c(F)c2)cn1` [Compound A8, 6-(2-fluoro-4-(1-methyl-1H-pyrazol-4-yl)benzyl)-N-((1S,2S)-2-hydroxycyclopentyl)-5-oxo-5,6-dihydro-1,6-naphthyridine-8-carboxamide], at human mAChR M1 [1], the EC50 was 1.29 µM and the Emax came to 83%. Besides, on human mAChR M1 [2], the EC50 was > 10 µM and the Emax is < 5%.
